Where two headings read alike, the source gives them in different places.
How the values were obtained:
[1] = biological target: Acremonium chrysogenum NBRC30055-derived saccharide oxidase (Hapsidospora chrysogena, UniProt A0A086T4F9); assay: Investigation of substrate specificity; type: biochemical
Experimental: Using each saccharide indicated in Table 4 shown below as a substrate and in the presence of oxygen, the protein purified in Example 1 described above was reacted for 5 minutes at 37° C. at pH 7.0, and the measurement was conducted in accordance with the aforementioned saccharide oxidase activity measuring method. In addition, regarding the activity toward the glucose as 100%, the relative value of the activity toward each saccharide was calculated, thereby evaluating the substrate specificity.

[2] = test system: OC[C@H]1OC(O)[C@H](O)[C@@H](O)[C@@H]1O; assay: purified protein, by the assay type; settings: other: saccharide as substrate of the purified protein; pH 7.0; 37.0 °C
Source text: Using the protein purified in the aforementioned Example together with glucose and maltose as substrates, the aforementioned saccharide oxidase activity method was used to measure the activity thereby obtaining Hanes-Woolf plots, from which each Michaelis constant (Km) was obtained.

[3] = Thermal inactivation after desugaring of egg white; type: physicochemical
Experimental: 100 μL of the desugared egg white was subjected to a heat treatment at a temperature of 54, 56, and 58° C. for 1, 3, 5, and 8 minutes, respectively, and then cooled on ice, and the residual activity of each enzyme was measured.

[4] = Production of lactobionic acid (HPLC verification); type: biochemical; settings: 3 U protein, 0.75 g lactose monohydrate, 23 hours, 40° C., 160 rpm
Experimental: 3 ml of a solution containing 0.75 g of lactose monohydrate, 0.225 g of potassium carbonate, and 3 U of the protein purified in the aforementioned Example 1 was added and shaken for 23 hours under the condition involving 40° C. and 160 rpm.
After the reaction, the sample was boiled for 10 minutes and then centrifuged at 15,000 rpm for 10 minutes. The resultant supernatant was filtered through a 0.45 μm filter and subjected to an HPLC analysis.

[5] = Investigation of pH stability; type: physicochemical; settings: pH5.0 to pH10.5, 15 minutes at 37° C.; treatment at pH7.0 = 100%; maltose substrate
Experimental: (§1) Since a quinoneimine color having absorption band at a wavelength of 550 nm was formed when the enzymatic reaction advanced, the saccharide oxidase activity was measured by measuring the increase in the absorbance at a wavelength of 550 nm per minute.
The protein solution purified in the aforementioned Example 1 and the buffer solution of each pH used in the aforementioned Example 3 were mixed in equal volumes and treated for 15 minutes at 37° C., and thereafter the activity was measured by the aforementioned saccharide oxidase activity measuring method. As a substrate, maltose was used. In addition, regarding the activity when using monopotassium phosphate-sodium hydroxide buffer solution (pH7.0) for treatment as 100%, each relative value of the activity was calculated. The results are indicated in the drawing-substituting graph of FIG. 3.

[6] = Investigation of thermostability; type: physicochemical
Experimental: as §1
The protein solution purified in the aforementioned Example 1 was subjected to a heat treatment for 15 minutes at a temperature of 20° C., 25° C., 30° C., 35° C., 37° C., 40° C., 45° C., 50° C., 55° C., 60° C., 65° C., 70° C., 75° C., and 80° C., and thereafter the residual activity was measured by the aforementioned saccharide oxidase activity method. Regarding the activity with no heat treatment as 100%, each value of the residual activity was calculated. The results are indicated in the drawing-substituting graph of FIG. 5.

[7] = relative activity 50% or higher versus glucose is judged satisfactory
[8] = saccharide as substrate, activity toward glucose = 100%, 37° C., pH 7.0, 5 minutes, in the presence of oxygen

OC[C@H]1O[C@@H](O[C@H]2[C@H](O)[C@@H](O)[C@H](O)O[C@@H]2CO)[C@H](O)[C@@H](O)[C@@H]1O [D(+)-Cellobiose]
effect of the saccharide oxidase on the substrate (in words) [1, 7]: satisfactory effect

O=C(CO)[C@@H](O)[C@H](O)[C@H](O)CO [D(−)-Fructose]
Relative activity (%) ([1]; pH 7): 0%
effect of the saccharide oxidase on the substrate (in words) [1, 7]: No effect

O=C[C@H](O)[C@@H](O)[C@@H](O)[C@H](O)CO [Galactose]
effect of the saccharide oxidase on the substrate (in words) [1, 7]: satisfactory effect
Relative activity (%) [1, 8]: 79%
Relative activity (%) ([1]; saccharide as substrate, activity toward glucose = 100%, 37° C., pH 7.0, 5 minutes, in the presence of oxygen, listed as galactose): about 79%

OC[C@H]1O[C@H](O[C@H]2[C@H](O)[C@@H](O)[C@@H](O[C@H]3[C@H](O)[C@@H](O)[C@@H](O[C@H]4[C@H](O)[C@@H](O)C(O)O[C@@H]4CO)O[C@@H]3CO)O[C@@H]2CO)[C@H](O)[C@@H](O)[C@@H]1O (some centres unmarked) [Maltotetraose]
effect of the saccharide oxidase on the substrate (in words) [1, 7]: satisfactory effect
Relative activity (%) [1, 8]: 60%
Relative activity (%) ([1]; saccharide as substrate, activity toward glucose = 100%, 37° C., pH 7.0, 5 minutes, in the presence of oxygen, listed as maltotetraose): about 60%

OC[C@H]1O[C@@](CO)(O[C@H]2O[C@H](CO)[C@@H](O)[C@H](O)[C@H]2O)[C@@H](O)[C@@H]1O [Sucrose]
Relative activity (%) ([1]; pH 7): 0%
effect of the saccharide oxidase on the substrate (in words) [1, 7]: No effect

Acremonium chrysogenum NBRC30055-derived saccharide oxidase (Hapsidospora chrysogenum ATCC 11550)
Km [2]: 8 mM

Lactose monohydrate
effect of the saccharide oxidase on the substrate (in words) [1]: satisfactory effect

Maltoheptaose
Relative activity (%) [1, 8]: 24%

Maltohexaose
Relative activity (%) [1, 8]: 28%

Maltopentaose
Relative activity (%) [1, 8]: 39%

Maltose monohydrate
effect of the saccharide oxidase on the substrate (in words) [1]: satisfactory effect

Maltotriose
effect of the saccharide oxidase on the substrate (in words) [1, 7]: satisfactory effect
Relative activity (%) [1, 8]: 92%
Relative activity (%) ([1]; saccharide as substrate, activity toward glucose = 100%, 37° C., pH 7.0, 5 minutes, in the presence of oxygen, listed as maltotriose): about 92%

B1: Saccharide oxidase: protein having saccharide oxidase activity purified from Acremonium chrysogenum NBRC30055, about 63 kDa, amino acid sequence SEQ. ID. NO:10 (protein, listed as Acremonium chrysogenum)
chain: MRSLAPLLSIAALARASPVDTSLLTRQETLNTCLEAAELSYVDVNSEDWEDAIVPHNLRVPVVPRAVVYATATEQIQAAVKCAVESEIRVSAKSGGHSYASMGLGGEDGSLVIQLDHWHDVTLRDDNTAVVSAGTRLGVVALELYAQGKRGISHGTCPSVGVGGHVVHGGYGFSSHTHGLALDAVVGANVVLADGSLVHASETENTDLFWALRGGGSSFGIVAEFEFETFDVSHNFSYFSIDSDISQETAEEATASLLAFQDALEEGLMDRKLNMRLSLGRPKVTLEAVYHGAKEDGRKALELFDDILGLNWSSNRTRANEADWLTMLESWTYGDPLNITYPYEGHDNAYTSSLVTRHIPEDAMASFMTYWKGVGQDRETPNWWLQMDVHGDANSRISEVDADSTAYSHRDKLWLFQFSSPLNPLRPDPEAAFALVNGYMDSIKDHLGDGEWGRYANYIDSELSREDAQTQYWSDHLDKLQAIKAELDPTQVFYNPQSIDPAAVE
residual enzyme activity in desugared egg white after heat treatment ([3]; 54 and 56° C., 1, 3, 5 and 8 minutes): no substantial reduction in the activity
residual enzyme activity in desugared egg white after heat treatment ([3]; 58° C. for 5 minutes or longer, compared with the glucose oxidase): significant reduction in the activity
production of lactobionic acid from lactose [4]: production of the lactobionic acid was verified
residual activity after pH treatment [5]: ≥ 85%
residual activity after heat treatment ([6]; 15 minutes at 45° C., pH7.0, no heat treatment = 100%): ≥ 80%
temperature up to which stability was observed ([6]; heat treatment for 15 minutes): up to 45 °C

Reference: US10167453B2, “Saccharide oxidase, and production method for same and use of same” (AMANO ENZYME INC., priority 2012, dated 2019)
